# Experiment: Inhibition of rat microsomal VKER
row,Compound,IC50
1,CC(=O)CC(c1ccccc1)c1c(O)oc2cc(O)ccc2c1=O (stereo unspecified),250000 nM
2,CC(=O)CC(c1ccccc1)c1c(O)oc2ccc(O)cc2c1=O (stereo unspecified),12800 nM
3,CC(=O)CC(c1ccccc1)c1c(SC[C@@H](NC(C)=O)C(=O)O)c2ccccc2oc1=O (stereo partly specified),> 500000 nM
4,CC(=O)CC(C1=C(O)c2ccccc2C1=O)c1ccccc1 (stereo unspecified),3000 nM
5,CC(C)=CCC/C(C)=C/CC/C(C)=C/CC1=C(O)c2ccccc2C(=O)C1=O,130 nM
6,CCCCCCCC/C=C\CCCCCCCCc1c(O)c2ccccc2oc1=O,900 nM
7,CC(C)=CCC/C(C)=C/CC/C(C)=C/Cc1c(O)c2ccccc2oc1=O,98 nM
8,COc1c(C(CC(C)=O)c2ccccc2)c(=O)oc2ccccc12 (stereo unspecified),> 500000 nM
9,O=c1oc2ccccc2c(O)c1C1CC(c2ccc(-c3ccc(Br)cc3)cc2)Cc2ccccc21 (stereo unspecified) [BRODIFACOUM],150 nM
10,CC(C)=CCC/C(C)=C/CC/C(C)=C/Cc1c(O)c2cc(C)c(C)cc2oc1=O [DIMETHYLFERULENOL],340 nM
11,CC(O)CC(c1ccccc1)c1c(O)c2ccccc2oc1=O (stereo unspecified) [WARFARIN ALCOHOL],12500 nM
12,CC(=O)CC(c1ccccc1)c1c(OS(=O)(=O)C(F)(F)F)c2ccc(O)cc2oc1=O (stereo unspecified) [WARFARIN TRIFLATE],> 500000 nM
13,CC(=O)CC(c1ccccc1)c1c(O)c2ccccc2oc1=O (stereo unspecified) [WARFARIN],2200 nM

# Further lines, results first:
row,IC50,Compound
1,> 500000 nM,CC(=O)CC(c1ccccc1)c1c(Cl)c2ccccc2oc1=O (stereo unspecified)
2,> 500000 nM,CC(=O)CC(c1ccccc1)c1cc2ccccc2oc1=O (stereo unspecified)
3,18300 nM,CC(=O)CC(c1ccccc1)c1c(S)c2ccccc2oc1=O (stereo unspecified)
4,770 nM,CC(=O)CC(c1ccc([N+](=O)[O-])cc1)c1c(O)c2ccccc2oc1=O (stereo unspecified) [ACENOCOUMAROL]
5,3100 nM,O=c1oc2ccccc2c(O)c1Cc1c(O)c2ccccc2oc1=O [DICUMAROL]
6,79000 nM,CC(C)=CCc1c(O)c2ccccc2oc1=O [ISOPRENYLCOUMARIN]
7,1800 nM,CCC(c1ccccc1)c1c(O)c2ccccc2oc1=O (stereo unspecified) [PHENPROCOUMON]

# Experiment: Dissociation constant, pKa of the compound
# Format: physicochemical
row,pKa,Compound
1,6.6,CC(=O)CC(c1ccccc1)c1c(S)c2ccccc2oc1=O (stereo unspecified)
